Measured values from patent US20190183952A1, “METHODS FOR PREPARING ACTIVE EXTRACT AND APPLICATION THEREOF” (BEIJING BOXIN NATURE BIOTECH LTD., priority 2016, published 2019).

How the values were obtained:
[1] = tested on: human prostate strips from patients with BPH/LUTS; assay: Organ bath, norepinephrine-contracted human prostate strips
Protocol: (§1) Organ Bath Experiments with Human Prostate and Bladder Tissues (FIGS. 10, 12, 19, and 20):
(§2) Specimens of human prostate and bladder neck were obtained from patients undergoing suprapubic adenomectomy (Millin's approach) for benign prostatic hyperplasia (BPH). […]
(§3) Human prostate and bladder neck specimens were cleaned of fat and connective tissue and cut into strips for organ bath assays. […] Tissues were subsequently exposed to 125 mM K^+ (equimolar substitution of […] in KHS) and contractile response was measured to check functionality. The relaxant effect induced by increasing doses of the NtB extract or the vehicle (distilled water) was evaluated in human prostate and bladder neck strips precontracted with 3-10 μM norepinephrine (NE) (80% of K^+-induced contraction, approximately) (FIG. 10). Relaxations of human prostate and bladder neck induced by PDES inhibition were evaluated by adding increasing concentrations of tadalafil (1 nM to 100 μM) on strips precontracted with NE and previously treated with NtB (10 mg/ml) or vehicle (distilled water) (FIG. 12). […] Concentration-response (relaxation) curves to lycopene (0.025 to 0.5 mg/ml) were also determined after NE-induced contraction in human bladder neck (FIG. 20A).

[2] = tested on: prostatic specific antigen (PSA) production by LNCaP; assay: Androgen-stimulated PSA production (ELISA) in LNCaP cells; type: cell-based, human; conditions: testosterone or dihydrotestosterone (40 nM), 24 h; lycopene 0.1 and 0.25 mg/ml
Protocol: Prostatic-Specific Antigen (PSA) Determinations (FIGS. 9 and 18):
For this purpose, LNCaP cells were seeded at 25,000 cells/well in 24-well plates and let to grow in complete medium (10% FBS) at 80% confluence, approximately, that is typically achieved after 48 h. The culture medium was then exchanged for fresh serum-free medium containing the respective treatments (androgens and/or NtB and/or lycopene). Conditioned media was collected 24 h afterwards and PSA concentrations were determined by using a colorimetric ELISA kit following manufacturer's instructions (Ray Biotech, Norcross, Ga., USA).

[3] = tested on: human bladder neck strips from patients with BPH/LUTS; assay: Organ bath, norepinephrine-contracted human bladder neck strips
Protocol: as §1, §2, §3

[4] = tested on: androgen-sensitive human prostate cancer cell line, LNCaP; assay: XTT cell proliferation assay, LNCaP; type: cell-based
Protocol: (§4) Cell Proliferation Assays (FIGS. 7, 8, 16, and 17):
(§5) Human androgen-sensitive prostate cancer cell line, LNCaP, and androgen-insensitive prostate cancer cell line, PC-3 were cultured in RPMI-1640 medium supplemented with 2 mM L-glutamine and 10% fetal bovine serum (FBS). For proliferation assays LNCaP and PC-3 cells were seeded at 15,000 cells/well density in 24-well plates with complete medium (with 10% FBS). Cells were let to attach for 20 h and then, the culture medium was exchanged for fresh serum-free medium containing the respective treatments (androgens and test compounds). Viable cells content in each well was determined 72 h afterwards.
(§6) Proliferation was determined by the XTT cell viability assay (Cell Proliferation Kit II (XTT), Sigma-Aldrich, St. Louis, Mo., USA). This is a colorimetric assay that analyzes the number of viable cells by the cleavage of tetrazolium salts added to the culture medium. The cleavage product of tetrazolium salt XTT, in contrast to MTT, is soluble in water. The tetrazolium salt XTT is cleaved to formazan by a complex cellular mechanism. This bioreduction occurs in viable cells only. […] After this incubation period, the amount of formazan dye formed was quantitated using a plate reader. The measured absorbance at 490 nm directly correlates to the number of viable cells.

[5] = tested on: androgen-independent human prostate cancer cell line, PC-3; assay: XTT cell proliferation assay, PC-3; type: cell-based; conditions: lycopene 0.1 and 0.25 mg/ml
Protocol: as §4, §5, §6

SMILES: CC(C)=CCC/C(C)=C/C=C/C(C)=C/C=C/C(C)=C/C=C/C=C(C)/C=C/C=C(C)/C=C/C=C(\C)CCC=C(C)C [lycopene]
- relaxation (reversion of NE-induced contraction) of human prostate strips [1]: could have relaxant activity by itself
- androgen-stimulated PSA production in LNCaP cells [2]: prevented
- relaxation (reversion of NE-induced contraction) of human bladder neck strips [3]: could have relaxant activity by itself
- testosterone- or dihydrotestosterone-induced increase in proliferation of LNCaP cells ([4]; lycopene 0.25 mg/ml, T or DHT 40 nM): effectively reversed
- proliferation of LNCaP cells in the absence of androgen stimulation ([4]; lycopene 0.1 and 0.25 mg/ml): did not significantly influence proliferation
- proliferation of PC-3 cells in the absence of androgen stimulation [5]: did not significantly influence proliferation
- proliferation of PC-3 cells in the presence of T or DHT ([5]; T or DHT 40 nM): failed to significantly reduce proliferation
